# Reference: the NIST ThermoML archive (doi:10.1016/j.jct.2008.01.022)
# Numbers after ± are expanded uncertainties.
# Conditions: 101.33 kPa, Liquid; for viscosity: Capillary tube (Ostwald / Ubbelohde) method
Compound,viscosity (293.15 K) [mPa·s],"mass density (293.15 K, Vibrating tube method) [kg/m3]",viscosity (303.15 K) [mPa·s],"mass density (303.15 K, Vibrating tube method) [kg/m3]",viscosity (313.15 K) [mPa·s],"mass density (313.15 K, Vibrating tube method) [kg/m3]",viscosity (323.15 K) [mPa·s],"mass density (323.15 K, Vibrating tube method) [kg/m3]",mass density (293.15 K) [kg/m3],mass density (303.15 K) [kg/m3],mass density (313.15 K) [kg/m3],mass density (323.15 K) [kg/m3]
"CCCC(O)CO (configuration not stated) [1,2-pentanediol]",76.96 ± 2.1,970.35 ± 5.1,39.16 ± 1,963.07 ± 5,22.52 ± 0.58,955.65 ± 5,13.66 ± 0.35,948.12 ± 4.9,–,–,–,–
"CC(O)CO (configuration not stated) [1,2-propanediol]",56.21 ± 0.32,–,32.63 ± 0.24,–,19.58 ± 0.15,–,12.79 ± 0.1,–,1036.3 ± 0.6,1028.92 ± 0.58,1021.39 ± 0.57,1013.7 ± 0.56
"CCC(O)CO (configuration not stated) [1,2-butanediol]",71.87 ± 0.69,–,37.86 ± 0.28,–,21.49 ± 0.16,–,13.12 ± 0.1,–,1002.43 ± 0.54,994.98 ± 0.54,987.39 ± 0.55,979.64 ± 0.56
"CCCCC(O)CO (configuration not stated) [1,2-hexanediol]",83.41 ± 1.6,–,42.25 ± 0.67,–,24.12 ± 0.39,–,14.79 ± 0.24,–,951.86 ± 2.3,944.66 ± 2.3,937.34 ± 2.3,929.9 ± 2.3
